# In US11878063B2, “Engineered ligands and uses thereof” (Children's Medical Center Corporation, priority 2019, dated 2024):
# Square brackets hold non-standard residues; d marks the D form. Ends that are not written are not given here. Peptide text beside a SMILES is read from it. hArg = N=C(N)NCCCC[C@H](N)C(=O)O; Aib = CC(C)(N)C(=O)O
# Columns and labels:
# [1] = target: T1, PTHR2 (Homo sapiens, UniProt P49190); assay: cAMP induction in HEK293 cells stably expressing human PTHR2; format: cell-based
# T1 construct: expressed in transfected cells
# T1 sequence (P49190 25-550): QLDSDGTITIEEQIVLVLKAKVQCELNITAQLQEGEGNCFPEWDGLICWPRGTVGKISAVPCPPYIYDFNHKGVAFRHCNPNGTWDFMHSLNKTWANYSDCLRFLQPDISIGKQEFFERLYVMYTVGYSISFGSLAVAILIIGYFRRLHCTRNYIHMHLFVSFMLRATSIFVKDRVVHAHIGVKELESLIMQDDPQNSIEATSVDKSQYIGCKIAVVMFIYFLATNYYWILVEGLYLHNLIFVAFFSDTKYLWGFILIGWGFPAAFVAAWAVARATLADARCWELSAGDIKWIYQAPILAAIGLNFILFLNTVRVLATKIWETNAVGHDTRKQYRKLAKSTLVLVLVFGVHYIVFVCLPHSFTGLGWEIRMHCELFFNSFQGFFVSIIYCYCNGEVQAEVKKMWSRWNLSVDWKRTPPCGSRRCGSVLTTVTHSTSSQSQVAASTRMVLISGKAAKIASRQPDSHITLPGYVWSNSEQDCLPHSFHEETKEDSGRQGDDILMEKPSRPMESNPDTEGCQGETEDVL
# Procedure: (§1) Measurement of cAMP response. These assays were performed as previously described^27. […] Confluent monolayers of cells were pre-incubated with CO2 independent medium containing D-luciferin (0.5 mM) at 37° C. until a stable baseline level of luminescence was established (20 min). Varying concentrations of ligands were then added, and the time course of luminescence response was recorded using BioTek plate reader.
# (§2) Data calculations. Data were processed using Microsoft Excel and GraphPad Prism 6. Data from cAMP dose-response assays were analyzed using a sigmoidal dose-response model with variable slope. Data sets were statistically compared by using Student's t test (two-tailed) assuming unequal variances for the two sets.
# [2] = target: T2, human PTHR1 (Homo sapiens, UniProt Q03431); assay: cAMP induction (cAMP-responsive luciferase) in HEK293 cells stably expressing human PTHR1; format: cell-based
# T2 construct: expressed in transfected cells
# T2 sequence (Q03431 27-593): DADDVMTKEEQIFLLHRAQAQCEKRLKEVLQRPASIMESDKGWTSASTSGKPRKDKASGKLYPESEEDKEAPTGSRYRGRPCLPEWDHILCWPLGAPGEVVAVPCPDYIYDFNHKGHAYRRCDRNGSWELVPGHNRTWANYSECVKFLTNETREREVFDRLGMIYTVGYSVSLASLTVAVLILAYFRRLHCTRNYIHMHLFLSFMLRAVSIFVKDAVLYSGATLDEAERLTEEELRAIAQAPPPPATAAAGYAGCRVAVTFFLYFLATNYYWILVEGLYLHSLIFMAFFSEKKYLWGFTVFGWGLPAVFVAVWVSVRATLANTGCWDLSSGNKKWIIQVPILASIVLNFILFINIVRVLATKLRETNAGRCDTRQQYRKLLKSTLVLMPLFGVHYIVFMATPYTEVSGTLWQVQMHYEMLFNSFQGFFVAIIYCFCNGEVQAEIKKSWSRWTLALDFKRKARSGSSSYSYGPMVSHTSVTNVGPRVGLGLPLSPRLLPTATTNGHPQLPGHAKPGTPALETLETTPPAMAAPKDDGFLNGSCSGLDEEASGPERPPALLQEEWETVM
# Procedure: as §1, §2
# [3] = target: T3, PTHR16E (Homo sapiens, UniProt Q03431, A83I/D81R/G76A/K80A/K82Q/P78E/R79L/S71Q/S73D/S75E/T74Q); assay: cAMP induction in HEK293 cells stably expressing PTHR16E (6E/Ubc6e epitope tag in exon 2 segment); format: cell-based
# T3 construct: expressed in transfected cells
# T3 sequence (Q03431 27-593 S71Q/S73D/T74Q/S75E/G76A/P78E/R79L/K80A/D81R/K82Q/A83I): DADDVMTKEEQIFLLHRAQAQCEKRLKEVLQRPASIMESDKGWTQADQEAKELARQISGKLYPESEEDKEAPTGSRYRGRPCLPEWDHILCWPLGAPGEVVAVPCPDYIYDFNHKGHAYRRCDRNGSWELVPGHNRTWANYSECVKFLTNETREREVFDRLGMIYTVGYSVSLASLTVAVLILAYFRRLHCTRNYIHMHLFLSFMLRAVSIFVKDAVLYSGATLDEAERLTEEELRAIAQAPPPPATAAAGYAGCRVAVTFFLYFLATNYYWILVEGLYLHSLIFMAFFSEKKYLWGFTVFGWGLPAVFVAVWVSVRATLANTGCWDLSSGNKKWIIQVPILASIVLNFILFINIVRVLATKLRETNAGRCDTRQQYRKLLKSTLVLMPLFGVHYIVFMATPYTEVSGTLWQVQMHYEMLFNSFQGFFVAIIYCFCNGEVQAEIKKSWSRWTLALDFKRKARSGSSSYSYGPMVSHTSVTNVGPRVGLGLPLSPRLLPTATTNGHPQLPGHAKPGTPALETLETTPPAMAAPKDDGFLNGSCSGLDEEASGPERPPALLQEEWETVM
# Procedure: (§3) Measurement of cAMP response. These assays were performed as previously described^27. Briefly, HEK-293-derived cell lines that stably express the Glosensor cAMP reporter (Promega Corp.)^30 and PTHR1, a PTHR1 variant, or PTHR2 were seeded into white sided 96 well plates (50,000 cells/well) and grown to confluency. Confluent monolayers of cells were pre-incubated with CO2 independent medium containing D-luciferin (0.5 mM) at 37° C. until a stable baseline level of luminescence was established (20 min). Varying concentrations of ligands were then added, and the time course of luminescence response was recorded using BioTek plate reader.
# as §2
# (§4) The portion of PTHR1 encoded by exon 2 is not resolved in structural studies (FIG. 12—Panel d)^13, 14, 17, is not important for ligand binding^18, and in past work has been targeted as a site for receptor modification^18, 19. A construct was generated that encodes a PTHR1 variant in which a 14-residue fragment from exon 2 was replaced with a 14-mer epitope tag from the intracellular protein UBC6e (PTHR16E, FIG. 12—Panel d)^20. A receptor construct in which a pH-sensitive green fluorescent protein variant (GFP) was inserted into the portion of the receptor encoded by exon 2 (PTHR1GFP in FIGS. 17A to 17C)^19. Another version of PTHR1 in which yellow fluorescent protein (YFP) replaces the entire extracellular domain (PTHR1YFPΔECD, FIG. 12—Panel e)^21, was also used.
# [4] = tested on: PTHR1YFPΔECD; assay: cAMP induction in HEK293 cells stably expressing PTHR1YFPΔECD (YFP replaces extracellular domain); format: cell-based, human
# Procedure: as §3, §2, §4
# [5] = tested on: PTHR1GFP; assay: cAMP induction in HEK293 cells stably expressing PTHR1GFP; format: cell-based, human
# Procedure: The GFP-PTHR1 fusion was stably expressed in cells that respond to receptor engagement by activation of a cAMP-sensitive version of luciferase. Exposure of these transfectants to PTH(1-11) yielded the expected dose-response curve with half maximal stimulation at ˜200 nM.
# as §3, with “reader. The maximal luminescence response (observed 12-16 min after ligand addition) was used to construct dose-response data sets (Table 4, FIGS. 22A to 22E).” for “reader.”
# as §2
# as §4, with “While there is no structural information for any VHH bound to PTHR1, a mode of interaction was envisioned between the receptor and VHH-PTH conjugates like that depicted in FIG. 12—Panel c. The” for “The”
# [6] = tested on: Mice (CD1 female); assay: Calcemic response: blood ionized calcium in mice after subcutaneous injection; format: in vivo, mouse; conditions: 35 nmol/kg subcutaneous, n=4
# Procedure: Animal experiments and measurement of in vivo response. Mice (CD1 female, age 11 weeks) were treated in accordance with the ethical guidelines adopted by Massachusetts General Hospital. […] Peptides and conjugates were administered at doses that allowed for differentiation between compounds with differing levels of in vivo activity^27. Statistical analyses were performed assuming Gaussian distribution of data. Mice (n=4 per compound) were injected subcutaneously with vehicle (10 mM citric acid/150 mM NaCl/0.05% Tween-80, pH 5.0) or vehicle containing PTH or conjugate at a dose of 35 nmol/kg body weight. […] Blood was withdrawn just before injection (t=0) or at times thereafter. Tail vein blood was collected and immediately analyzed. Blood Ca^2+ concentration was measured with a Siemens RapidLab 348 Ca2+/pH analyzer.
# [7] = target: T1, PTHR2; assay: Flow cytometry staining by VHH-Alexafluor647 of HEK293 cells expressing PTHR2; format: binding; conditions: 100 nM VHH
# Procedure: Flow cytometry. Suspensions of cells in PBS were stained for 1 hour on ice in the presence of indicated concentrations of VHH probes functionalized with Alexafluor647. Cells were pelleted by centrifugation and washed with PBS prior to analysis by flow cytometry (BD Accuri C6). Gating was performed on forward scatter/side scatter profiles to analyze intact cells. Data was analyzed using FlowJo version 7.6. The median fluorescent intensity (MFI) of stained cells was used to generate VHH binding dose response curves (FIG. 20).
# [8] = mean ± SD, Inactive = response <5% of maximal
# [9] = maximal cAMP response, normalized
molecule,measurement,setting,value
TIP 39,activation of human PTHR2 (in words),[1],activated
"modified N-terminal PTH fragment with Aib3, amide; probably AV(Aib)EIQLMH (SEQ ID NO: 86) [PTH(1-9)]","EC50, cAMP induction, hPTHR1","[2]; mean ± SD, Inactive = response <5% of maximal response at that concentration","Inactive at 10,000 nM"
same,"EC50, cAMP induction, PTHR16E",[3]; [8],"Inactive at 10,000 nM"
same,activation of PTHR1 with ECD replaced by fluorescent protein (in words),[4],inactive alone
same,"EC50, cAMP induction, hPTHR1YFPΔECD",[4]; [8],"Inactive at 10,000 nM"
same,"EC50, cAMP induction, hPTHR1GFP",[5]; [8],"Inactive at 10,000 nM"
CC[C@H](C)[C@H](NC(=O)[C@H](CCC(=O)O)NC(=O)C(C)(C)NC(=O)[C@@H](NC(=O)[C@H](C)N)C(C)C)C(=O)N[C@@H](CCC(N)=O)C(=O)N[C@@H](CC(C)C)C(=O)N[C@@H](CCSC)C(=O)N[C@@H](Cc1c[nH]cn1)C(=O)N[C@@H](CCC(N)=O)C(=O)N[C@@H](CCCNC(=N)N)C(=O)N[C@@H](C)C(=O)N[C@@H](CCCCN)C(=O)N[C@@H](Cc1c[nH]c2ccccc12)C(=O)N[C@@H](CS)C(N)=O [PTH(1-14)] (H-AV[Aib]EIQLMHQRAKWC-NH2),activation of wild-type human PTHR1 (in words),[2],activated
same,"Max (normalized ± SD), hPTHR1",[2]; [9],1.01 ± 0.07
same,EC50,"[2]; mean ± SD, Inactive = response <5% of maximal response at that concentration, read-out: EC50, cAMP induction, hPTHR1",4.3 ± 2 nM
same,"Max (normalized ± SD), hPTHR16E",[3]; [9],1.06 ± 0.12
same,"Max (normalized ± SD), hPTHR1YFPΔECD",[4]; [9],0.96 ± 0.04
same,EC50,"[4]; mean ± SD, Inactive = response <5% of maximal, read-out: EC50, cAMP induction, hPTHR1YFPΔECD",1.1 ± 0.9 nM
same,"Max (normalized ± SD), hPTHR1GFP",[5]; [9],1.09 ± 0.03
same,EC50,"[5]; mean ± SD, Inactive = response <5% of maximal, read-out: EC50, cAMP induction, hPTHR1GFP",2.3 ± 1.2 nM
same,activation of human PTHR2 (in words),[1],activated
same,"Max (normalized ± SD), hPTHR2",[1]; [9],1.14 ± 0.28
same,EC50,"[1]; mean ± SD, read-out: EC50, cAMP induction, hPTHR2",924 ± 328 nM
M-PTH(1-14): UVUEIQLMHQXAKW (SEQ ID NO: 90) where U is Aib and X is homoarginine ([Aib]V[Aib]EIQLMHQ[hArg]AKW; not fully specified (C-terminus)),blood ionized calcium response,[6],little if any activity
"VHH6E: nanobody that recognizes a 14-mer peptide from UBC6e (…), SEQ ID NO: 71 (protein) VHH: QVQLQESGGGLVQPGGSLRLSCAASGFVFENSAMAWYRQAPGKERELIAVIGTTFIKLAESVKGRFTISRDNAKSTVYLQMNNLKPEDTAVYYCSKSGAYWGQGTQVTVSSLPETGG",binding to PTHR2 (in words),[7],lack of binding
VHH05-PTH(1-34): PTH(1-34)-Cys conjugated to nanobody VHH05 (conjugate) VHH: QVQLQESGGGLVQPGGSLRLSCAASGFVFENSAMAWYRQAPGKERELIAVIGTTFIKLAESVKGRFTISRDNAKSTVYLQMNNLKPEDTAVYYCSKSGAYWGQGTQVTVSS peptide: SVSEIQLMHNLGKHLNSMERVEWLRKKLQDVHNFC,activation of wild-type human PTHR1 (in words),[2],activates
